# Measurements: patent US8487001B2, “Medium-chain length fatty acids, glycerides and analogues as neutrophil survival and activation factors” (ProMetic BioSciences Inc., priority 2001, dated 2013)
# “And” between values parts separate entries of the source, which are not always exact repeats. Equal entries are not always repeated.
# Tests used:
# bone marrow cells = assay: In vivo chemoprotection: bone marrow cell count; conditions: for effect on bone marrow cell count compared to cyclophosphamide treated mice: protocol of example 16 (pre-treatment)
# Description: (§1) To examine the immunoprotective effect of MCT or other compounds, mice were pre-treated orally at day-3, -2 and -1 or treated intravenously at day 0 with the test compound. Mice were sacrificed at day +5 by cardiac puncture and cervical dislocation. Then, cell suspensions were prepared from thymus, spleen and bone marrow as follow.
# (§2) Tissues were crushed in PBS buffer and contaminating erythrocytes were lysed in ACK buffer (155 mM NH4Cl, 12 mM NaHCO3, 0.1 mM EDTA, pH 7.3) for 5 minutes. Cells were then collected by centrifugation and washed three times in PBS and resuspended in tissue culture medium. Cells were counted on a hemacytometer.
# (§3) Chemoprotection studies were performed as described in example 16 except that mice were (post)-treated with MCT, sodium caprylate, sodium caprate or capric acid per o.s. on day 1, 2, 3 and 4.
# spleen cells = assay: In vivo chemoprotection: spleen cell count; conditions: for effect on spleen cell count compared to cyclophosphamide treated mice: protocol of example 16 (pre-treatment)
# Description: as §1, §2, §3
# blood cell subsets = assay: Blood immunophenotyping (flow cytometry of cell surface markers); assay type: in vivo, C57BL/6 mice; conditions: for Blood Immunophenotyping: effect compared to cyclophosphamide alone (words): CY (200 mg/kg) immunosuppressed mice
# Description: (§4) Female, 6- to 8-week old, C57BL/6 mice were pre-treated on day -3, -2 and -1 per o.s. or intravenously at day 0 with different concentrations of MCT. Immunophenotyping was also performed on immunosuppressed animals. […] Mice were sacrificed on day 5 by cardiac puncture. Blood and spleens were collected and cell suspensions prepared and erythrocytes lysed in ACK buffer (155 mM NH4Cl, 12 mM NaHCO3, 0.1 mM EDTA, pH 7.3) for 5 minutes. The cells were washed three times in PBS, pH 7.4 and resuspended in tissue culture medium. The cells were then incubated for 45 minutes on ice with fluorescein isothiocyanate (FITC) or phycoerythrin (PE) conjugated cell surface marker according to the manufacturer's (Gibco/BRL, Cedarlane, Boehringer Mannheim) recommendation. The cells were then washed in PBS, fixed with 1% paraformaldehyde and analyzed with a Coulter XL flow cytometer. Analysis of the cell subsets was undertaken by determination of standard cell surface markers which were as follows: TCR (T-cell receptor), CD4 (T helper), CD8 (T cytotoxic/suppressor), CD11b (macrophage), NK (NK cells) and Ly5 (B-cells). Bone marrow cells were obtained as described in example 15. Cells were stained by a 45 minutes incubation of FITC or PE conjugated cell surface marker according to the manufacturer's recommendation. The cells were then washed in PBS, fixed with 1% paraformaldehyde and analyzed with a Coulter XL flow cytometer. Analysis of the cell subsets was undertaken by determination of standard cell surface markers which were as follows: CD34 (hematopoietic progenitor cells), CD41 (platelets, megakaryocytes), CD13 (myelomonocytic stem cells, myelocytes, promonocytes) and CD38 (lymphoid stem cells, pro-B, pre-B).
# spleen cell subsets = assay: Spleen immunophenotyping (flow cytometry of cell surface markers); assay type: in vivo, C57BL/6 mice
# Description: as §4
# bone marrow cell subsets = assay: Bone marrow immunophenotyping (CD34, CD13, CD41, CD38); assay type: in vivo, C57BL/6 mice; conditions: mouse, in vivo
# Description: as §4
# The effect of MCT, sodium caprylate, sodium caprate on bone marrow immunophenotyping was assessed by the protocol described in example 26.
# DA-3 breast carcinoma = assay: Antitumor activity in DA-3 breast carcinoma model; assay type: in vivo, BALB/c mice; parameters: Tumor volume: unit not given here; conditions: for effect on tumor volume compared to the control: FIG. 12, Table 20; for effect on tumor volume compared to the control / T/C (%): therapeutic CY 200 mg/kg, TX 30 mg/kg; for Treated/Control (%) / Tumor volume: Table 19, sub-therapeutic CY 100 mg/kg, TX 20 mg/kg i.v. day 9 and 16, MCT per os, day 23; for T/C (%): Table 20
# Description: The syngeneic tumor DMBA3 (DA-3, breast carcinoma model) arose from a preneoplastic lesion treated with 7,12-dimethylbenzanthracene in female BALB/c mice. DA-3 cells were grown as monolayer cultures in plastic flasks in RPMI-1640 containing 0.1 mM nonessential amino acids, […], 2 mM L-glutamine and 100 μg/ml gentamycin sulfate. This was further supplemented with 50 μM 2-mercaptoethanol and 10% fetal bovine serum. The DA-3 tumors were serially passage in vivo by s.c. inoculation of 5×10^5 viable tumor cells to produce localized tumors in 6- to 8-week old BALB/c mice. The animals were then serially monitored by manual palpation for evidence of tumor. Serial tumor volume was obtained by bi-dimensional diameter measurements with calipers, using the formula […] (a×b^2) where “a” was the major tumor diameter and “b” the minor perpendicular diameter.
# BABL/c mice were injected with tumor cells on day 0. […] Body weights and tumor volumes were monitored from day 4 until day 23. At day 23, all animals were sacrificed. The % T/C (treatment over control) was calculated as the ratio of tumor volumes at termination date in the treatment group divided by the respective volumes in the control group multiplied by 100. By the NCl criteria the product is considered effective if % T/C is ≦40%.
# human neutrophils (PMN) = assay: Doxorubicin-induced neutrophil apoptosis, comparison to GM-CSF (% PMN viability); assay type: cell-based; conditions: for effect on doxorubicin-induced human neutrophil apoptosis: Table 2
# Text: Table 2 represents the effect of GM-CSF, MCT and tricaprylin on doxorubicin-induced human neutrophil apoptosis.
# thymus = assay: In vivo: thymus weight, MCT versus GM-CSF; conditions: normal mice; FIG. 8
# Description: as §1
# In vivo comparison on the induction of immune cell proliferation/regeneration or protection was undertaken following the protocol described in example 16. Comparative studies of MCT and GM-CSF were performed on normal and immunosuppressed animals.
# [1] = Table 5, CY-treated mice, CY + test compound (CY line = CY alone), protocol of example 16
# [2] = Table 6, CY-treated mice, CY + test compound (CY line = CY alone), protocol of example 16
# [3] = Table 7, CY-treated mice, CY + test compound 6.25 μMole pre-treatment (CY line = CY alone)
# [4] = Table 8, CY-immunosuppressed mice, CY + test compound 6.25 μM (CY line = CY alone)
# [5] = Table 9, CY-immunosuppressed mice, CY + test compound 6.25 μMole (CY line = CY alone)
# [6] = Table 10, CY-treated mice, post-treatment per o.s. on day 1, 2, 3 and 4 with test substance 12.5 μM (CY line = CY alone)
# [7] = Table 16, CY-treated mice, CY + test compound (CY line = CY alone), protocol of example 16
# [8] = immunosuppressed animals, comparison MCT versus GM-CSF
molecule,measurement,setting,value
"O=P1(N(CCCl)CCCl)NCCCO1 (centres unmarked) [CY, cyclophosphamide, reference compound]",effect of cytotoxic drug on bone marrow cell count compared to the control,"bone marrow cells; FIG. 6, cytotoxic drug i.v. at day 0",depressed the bone marrow cell count compared to the control
same,Bone Marrow # Cells (×10^6),bone marrow cells; [1],22 ± 5.7 ×10^6
same,Bone Marrow # Cells (×10^6),bone marrow cells; [2],22 ± 5.8 ×10^6
same,Bone Marrow # Cells (×10^6),bone marrow cells; [3],32 ± 6.3 ×10^6
same,Bone Marrow # Cells (×10^6),bone marrow cells; [4],27 ± 2.8 ×10^6
same,Bone Marrow # Cells (×10^6),bone marrow cells; [5],25 ± 4.9 ×10^6
same,Bone Marrow # Cells (×10^6),bone marrow cells; [6],19 ± 4.99 ×10^6
same,Bone Marrow # Cells (×10^6),bone marrow cells; [7],28 ± 3.4 ×10^6
same,Bone Marrow # Cells (×10^6),"bone marrow cells; Table 17, CY-treated mice, CY + test compound (CY line = CY alone), protocol of example 16",26.2 ± 2.6 ×10^6
same,Bone Marrow # Cells (×10^6),"bone marrow cells; Table 18, CY-treated mice, CY + test compound (CY line = CY alone), protocol of example 16",27.5 ± 8.0 ×10^6
same,effect of cytotoxic drug on spleen cell count compared to the control,"spleen cells; FIG. 7, cytotoxic drug i.v. at day 0",reduce significantly the spleen cell count compared to the control
same,Spleen # Cells (×10^6),spleen cells; [1],23 ± 4.0 ×10^6
same,Spleen # Cells (×10^6),spleen cells; [2],36 ± 13.6 ×10^6
same,Spleen # Cells (×10^6),spleen cells; [3],24 ± 6 ×10^6
same,Spleen # Cells (×10^6),spleen cells; [4],19 ± 6.5 ×10^6
same,Spleen # Cells (×10^6),spleen cells; [5],33 ± 13.2 ×10^6
same,Spleen # Cells (×10^6),spleen cells; [6],30 ± 9.5 ×10^6
same,Spleen # Cells (×10^6),spleen cells; [7],29 ± 9.2 ×10^6
same,Blood Immunophenotyping: CD11+ cell subset (relative percentage),"blood cell subsets; mouse, in vivo",26.41 ± 4.54
same,Blood Immunophenotyping: LY5−TCR− cell subset (relative percentage),"blood cell subsets; mouse, in vivo",36.82 ± 9.93 and 56.36 ± 7.26 and 40.91 ± 8.84
same,Spleen Immunophenotyping: CD11+ cell subset (relative percentage),"spleen cell subsets; mouse, in vivo",16.31 ± 4.85
same,Spleen Immunophenotyping: NK+ cell subset (relative percentage),"spleen cell subsets; mouse, in vivo",7.53 ± 2.52
same,% Cells CD13+ (bone marrow),bone marrow cell subsets,3.2 ± 0.5%
same,% Cells CD34+ (bone marrow),bone marrow cell subsets,10 ± 1.0%
same,% Cells CD38+ (bone marrow),bone marrow cell subsets,39.6 ± 13.6%
same,% Cells CD41+ (bone marrow),bone marrow cell subsets,4.2 ± 0.6%
same,Bone marrow immunophenotyping,bone marrow cell subsets,induces a significant increase in all studied subsets
same,effect on tumor volume compared to the control,DA-3 breast carcinoma,significant reduction of the tumor volume
same,Treated/Control (%),DA-3 breast carcinoma,46.8%
same,Tumor volume,DA-3 breast carcinoma,27.5 ± 15.9
same,T/C (%),DA-3 breast carcinoma,18.8%
"CC(=O)O[C@@]12CO[C@@H]1C[C@H](O)[C@@]1(C)C(=O)[C@H](O)C3=C(C)[C@@H](OC(=O)[C@H](O)[C@@H](NC(=O)OC(C)(C)C)c4ccccc4)C[C@@](O)([C@@H](OC(=O)c4ccccc4)[C@H]21)C3(C)C [TX, taxotere]",effect of cytotoxic drug on bone marrow cell count compared to the control,"bone marrow cells; mouse, in vivo, iv",has no significant effect on bone marrow cell count
same,effect of cytotoxic drug on spleen cell count compared to the control,"spleen cells; mouse, in vivo, iv",reduce significantly the spleen cell count compared to the control
same,effect on tumor volume compared to the control,DA-3 breast carcinoma,not significant compared to the control mice
same,Treated/Control (%),DA-3 breast carcinoma,64.5%
same,Tumor volume,DA-3 breast carcinoma,37.9 ± 41.5
same,T/C (%),DA-3 breast carcinoma,64.7%
"CCCCCCCCCC(=O)OCC(N)COC(=O)CCCCCCCCC [didecanoyl serinol, 1,3-O,O-Didecanoyl serinol]",Bone Marrow # Cells (×10^6),bone marrow cells; [7],30 ± 3.8 ×10^6
same,Spleen # Cells (×10^6),spleen cells; [7],36 ± 9.9 ×10^6
same,melting point,,101 °C
CCCCCCCC(=O)OCC(COC(=O)CCCCCCC)OC(=O)CCCCCCC [tricaprylin],effect on doxorubicin-induced human neutrophil apoptosis,human neutrophils (PMN),rescues doxorubin-induced apoptosis and further enhances the viability of human neutrophils to a higher extent than that observed in the non-treated neutrophils
same,effect on bone marrow cell count compared to cyclophosphamide treated mice,bone marrow cells; CY-treated mice,efficacious in the proliferation or protection of bone marrow cell counts
same,Bone Marrow # Cells (×10^6),bone marrow cells; [2],34 ± 7.8 ×10^6
same,effect on spleen cell count compared to cyclophosphamide treated mice,spleen cells; CY-treated mice,No significant effect
same,Spleen # Cells (×10^6),spleen cells; [2],37 ± 12.6 ×10^6
CCCCCCCCCCCCCC(=O)OCC(COC(=O)CCCCCCCCCCCCC)OC(=O)CCCCCCCCCCCCC [trimyristin],effect on bone marrow cell count compared to cyclophosphamide treated mice,bone marrow cells; CY-treated mice,weak (not significant) activity
same,Bone Marrow # Cells (×10^6),bone marrow cells; [4],31 ± 9.9 ×10^6
same,effect on spleen cell count compared to cyclophosphamide treated mice,spleen cells; CY-treated mice,weak (not significant) activity
same,Spleen # Cells (×10^6),spleen cells; [4],15 ± 4.6 ×10^6
same,Blood Immunophenotyping: effect compared to cyclophosphamide alone (words),blood cell subsets,no significant effect compared to cyclophosphamide alone
same,Blood Immunophenotyping: effect compared to cyclophosphamide alone (words),blood cell subsets; listed as Trimyristin,No significant effect
same,Spleen Immunophenotyping: effect compared to cyclophosphamide alone (words),spleen cell subsets; CY (200 mg/kg) immunosuppressed mice,enhance the relative percentage of CD11+
same,Spleen Immunophenotyping: CD11+ cell subset (relative percentage),"spleen cell subsets; Table 14, CY (200 mg/kg) immunosuppressed mice, compound 6.25 μM",42.94 ± 8.45
"GM-CSF: granulocyte-macrophage colony stimulating factor, hematopoietic growth factor",% PMN Viability,human neutrophils (PMN); GM-CSF 10^-7 M + DOX (10^-5 M),16.75 ± 2.05%
same,% PMN Viability,human neutrophils (PMN); GM-CSF 10^-8 M + DOX (10^-5 M),6.99 ± 0.23%
same,effect on doxorubicin-induced human neutrophil apoptosis,human neutrophils (PMN),able to rescue or protect human neutrophils against doxorubicin-induced apoptosis
same,activity on bone marrow cell count,bone marrow cells; [8],has no significant activity on bone marrow and spleen cell counts
same,activity on spleen cell count,spleen cells; [8],has no significant activity on bone marrow and spleen cell counts
same,effect on thymus weight,thymus,significant effect
